Source: ChEMBL document CHEMBL3124857, “Encoded library technology as a source of hits for the discovery and lead optimization of a potent and selective class of bactericidal direct inhibitors of Mycobacterium tuberculosis InhA” (J Med Chem, 2014)
Values after ≈ are worked out from the molar mass of the structure shown.

Columns and labels:
[1] = test system: Mycobacterium tuberculosis; experiment: Antitubercular activity against wild type Mycobacterium tuberculosis H37Rv ATCC 25618 assessed as growth inhibition after 6 days by resazurin dye-based assay; format: functional; conditions: H37Rv ATCC 25618, 144 h
[2] = target: T1, Enoyl-[acyl-carrier-protein] reductase [NADH] (Mycobacterium tuberculosis, UniProt P9WGR1); experiment: Inhibition of Mycobacterium tuberculosis full length biotinylated InhA (270 amino acids) using DDCoA as substrate assessed as NADH oxidation by fluorimetric analysis
T1 sequence (P9WGR1 whole entry): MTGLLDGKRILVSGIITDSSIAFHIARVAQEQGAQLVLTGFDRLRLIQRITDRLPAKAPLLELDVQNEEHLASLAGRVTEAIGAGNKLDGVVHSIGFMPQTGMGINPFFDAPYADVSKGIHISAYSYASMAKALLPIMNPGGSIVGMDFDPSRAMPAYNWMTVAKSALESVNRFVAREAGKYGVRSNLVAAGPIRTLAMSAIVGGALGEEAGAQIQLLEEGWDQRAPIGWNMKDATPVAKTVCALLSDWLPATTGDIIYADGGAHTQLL

| Structure (SMILES) | MIC90 [1] [µM] | IC50 [2] [nM] |
| --- | --- | --- |
| CCc1cc(C(=O)N[C@@H]2C[C@@H](C(=O)Nc3nc(C)co3)N(C(=O)c3coc4ccccc34)C2)n(C)n1 | 8 (≈ 3.92 µg/mL) | 9 |
| CCc1cc(C(=O)N[C@@H]2C[C@@H](C(=O)Nc3ccn(C)n3)N(C(=O)c3coc4ccccc34)C2)n(C)n1 | 4 (≈ 1.96 µg/mL) | 7 |
| CCc1cc(C(=O)N[C@@H]2C[C@@H](C(=O)NC3CCOC3=O)N(C(=O)c3coc4ccccc34)C2)n(C)n1 (some centres undefined) | > 31 | 80 |
| CCc1cc(C(=O)N[C@@H]2C[C@@H](C(=O)NCC(=O)OC)N(C(=O)c3coc4ccccc34)C2)n(CC)n1 | 0.05 (≈ 0.0248 µg/mL) | 3 |
| CCc1cc(C(=O)N[C@@H]2C[C@@H](C(=O)NCc3ncco3)N(C(=O)c3coc4ccccc34)C2)n(C)n1 | 1 (≈ 0.491 µg/mL) | 5 |
| COC(=O)CNC(=O)[C@@H]1C[C@@H](NC(=O)c2cc(CC(C)C)nn2C)CN1C(=O)c1coc2ccccc12 | > 31 | > 1000 |
| CCc1cc(C(=O)N[C@@H]2C[C@@H](C(=O)NCCc3ccc(F)cc3)N(C(=O)c3coc4ccccc34)C2)n(C)n1 | 1 (≈ 0.532 µg/mL) | 6 |
